Reference: ChEMBL document CHEMBL4808202, “Evaluation of artemisinin derivative artemether as a fluconazole potentiator through inhibition of Pdr5” (2021)
Calls of active or inactive are those of the source. The rule behind the calls is not given here.

Tests used:
Candida tropicalis [1] = assay: Antifungal activity against Candida tropicalis NL001 assessed as fungal growth at 100 uM measured after 24 hrs by absorbance based analysis relative to vehicle-treated control; assay type: functional
Candida albicans [2] = assay: Potentiation of fluconazole-induced antifungal activity against Candida albicans CNL002 harboring cdr1 delta mutant assessed as inhibition of fungal growth at 100 uM measured after 24 hrs by absorbance based analysis; assay type: functional, organism-based
Candida albicans [3] = assay: Recovery of fluconazole susceptibility against fluconazole-resistant Candida albicans CNL011 assessed as inhibition of fungal growth at 100 uM measured every 15 mins for 24 hrs by absorbance based analysis; assay type: functional, organism-based
Saccharomyces cerevisiae [4] = assay: Antifungal activity against Saccharomyces cerevisiae harboring snq2 delta mutant assessed as fungal growth at 1600 uM measured after 24 hrs by absorbance based analysis relative to control; assay type: functional
Saccharomyces cerevisiae [5] = assay: Antifungal activity against Saccharomyces cerevisiae YNL013 harboring pdr5 delta mutant assessed as inhibition of fungal growth at 100 uM measured after 24 hrs by absorbance based analysis; assay type: functional, organism-based
Cryptococcus neoformans [6] = assay: Potentiation of fluconazole-induced antifungal activity against Cryptococcus neoformans H99 assessed as inhibition of fungal growth at 0.2 uM measured every 15 mins for 24 hrs in presence of fluconazole by absorbance based analysis; assay type: functional, organism-based
Candida albicans [7] = assay: Potentiation of fluconazole-induced antifungal activity against Candida albicans SC5314 assessed as fungal growth at 100 microM measured after 24 hrs in presence of fluconazole by absorbance based analysis relative to fluconazole-treated control; assay type: functional
Candida tropicalis [8] = assay: Potentiation of fluconazole-induced antifungal activity against Candida tropicalis NL001 assessed as fungal growth at 100 uM measured after 24 hrs in presence of fluconazole by absorbance based analysis relative to fluconazole-treated control; assay type: functional
Candida tropicalis [9] = assay: Potentiation of fluconazole-induced antifungal activity against Candida tropicalis NL001 assessed as fungal growth at 100 uM measured after 24 hrs in presence of fluconazole by absorbance based analysis relative to vehicle treated control; assay type: functional
[Candida] auris [10] = Potentiation of fluconazole-induced antifungal activity against Candida auris NL002 assessed as fungal growth at 100 uM measured after 24 hrs in presence of fluconazole by absorbance based analysis relative to fluconazole-treated control; assay type: functional, Candidozyma auris
Saccharomyces cerevisiae [11] = assay: Antifungal activity against Saccharomyces cerevisiae harboring yor1 delta mutant assessed as fungal growth at 1600 uM measured after 24 hrs by absorbance based analysis relative to control; assay type: functional
Saccharomyces cerevisiae [12] = assay: Inhibition of PDR5 in Saccharomyces cerevisiae BY4742 assessed as inhibition of R6G efflux at 400 uM incubated for 4 hrs followed by R6G addition and measured after 1.5 hrs by fluorescence based analysis; conditions: time 5.5 hrs
Candida albicans [13] = assay: Potentiation of fluconazole-induced antifungal activity against Candida albicans SC5314 assessed as inhibition of fungal filamentation by measuring reduction in fungal hyphae growth in YEPD containing 10% serum medium at 100 uM incubated for 1 hr in presence of fluconazole by microscopic analysis; assay type: functional, organism-based
Saccharomyces cerevisiae [14] = assay: Antifungal activity against Saccharomyces cerevisiae harboring pdr15 delta mutant assessed as fungal growth at 1600 uM measured after 24 hrs by absorbance based analysis relative to control; assay type: functional
Candida albicans [15] = assay: Potentiation of amphotericin B-induced antifungal activity against Candida albicans SC5314 assessed as fungal growth at 100 microM measured after 24 hrs in presence of amphotericin B by absorbance based analysis relative to amphotericin B-treated control; assay type: functional
Saccharomyces cerevisiae [16] = assay: Inhibition of PDR5 in Saccharomyces cerevisiae BY4742 assessed as inhibition of R6G efflux incubated for 4 hrs followed by R6G addition and measured after 1.5 hrs by fluorescence based analysis; conditions: dose 100-400 µM, time 5.5 hrs
Saccharomyces cerevisiae [17] = assay: Antifungal activity against Saccharomyces cerevisiae harboring pdr11 delta mutant assessed as fungal growth at 1600 uM measured after 24 hrs by absorbance based analysis relative to control; assay type: functional
[Candida] auris [18] = Antifungal activity against Candida auris NL002 assessed as fungal growth at 100 uM measured after 24 hrs by absorbance based analysis relative to vehicle-treated control; assay type: functional, Candidozyma auris
Candida parapsilosis [19] = assay: Antifungal activity against Candida parapsilosis NL001 assessed as fungal growth at 100 uM measured after 24 hrs by absorbance based analysis relative to vehicle-treated control; assay type: functional
Candida albicans [20] = assay: Antifungal activity against fluconazole-resistant Candida albicans CNL012 assessed as fungal growth at 100 uM measured after 24 hrs by absorbance based analysis relative to vehicle-treated control; assay type: functional
Saccharomyces cerevisiae [21] = assay: Antifungal activity against Saccharomyces cerevisiae harboring ybt1 delta mutant assessed as fungal growth at 1600 uM measured after 24 hrs by absorbance based analysis relative to control; assay type: functional
[Candida] auris [22] = Potentiation of fluconazole-induced antifungal activity against Candida auris NL002 assessed as fungal growth at 100 uM measured after 24 hrs in presence of fluconazole by absorbance based analysis relative to vehicle-treated control; assay type: functional, Candidozyma auris
Saccharomyces cerevisiae [23] = assay: Potentiation of fluconazole-induced antifungal activity against Saccharomyces cerevisiae BY4742 assessed as inhibition of fungal growth at 100 uM measured after 24 hrs in presence of fluconazole by absorbance based analysis relative to fluconazole-treated control; assay type: functional
Cryptococcus neoformans [24] = assay: Antifungal activity against Cryptococcus neoformans H99 assessed as inhibition of fungal growth at 0.2 uM measured every 15 mins for 24 hrs by absorbance based analysis; assay type: functional, organism-based
Saccharomyces cerevisiae [25] = assay: Potentiation of fluconazole-induced antifungal activity against Saccharomyces cerevisiae YNL033 overexpressing PDR5 assessed as fungal growth at 100 uM measured after 24 hrs by absorbance based analysis relative to fluconazole-treated control; assay type: functional
Saccharomyces cerevisiae [26] = assay: Antifungal activity against Saccharomyces cerevisiae BY4742 assessed as inhibition of fungal growth at 100 uM measured after 24 hrs by absorbance based analysis relative to vehicle-treated control; assay type: functional
Candida albicans [27] = assay: Antifungal activity against Candida albicans SC5314 assessed as inhibition of fungal filamentation in YEPD containing 10% serum medium at 100 uM incubated for 1 hr by microscopic analysis; assay type: functional, organism-based
[28] = test system: Saccharomyces cerevisiae BY4741; assay: Inhibition of PDR5 in Saccharomyces cerevisiae BY4741 assessed as intracellular accumulation of fluconazole at 400 uM measured per gm of cells after 4 hrs by HPLC analysis (reference value: 11.3 nmol); assay type: cell-based
Candida albicans [29] = assay: Potentiation of fluconazole-induced antifungal activity against Candida albicans SC5314 assessed as inhibition of fungal filamentation by measuring reduction in fungal hyphae growth in Spider medium at 100 uM incubated for 1 hr in presence of fluconazole by microscopic analysis; assay type: functional, organism-based
Saccharomyces cerevisiae [30] = assay: Antifungal activity against Saccharomyces cerevisiae harboring ynr070w delta mutant assessed as fungal growth at 1600 uM measured after 24 hrs by absorbance based analysis relative to control; assay type: functional
Saccharomyces cerevisiae [31] = assay: Antifungal activity against Saccharomyces cerevisiae harboring pdr12 delta mutant assessed as fungal growth at 1600 uM measured after 24 hrs by absorbance based analysis relative to control; assay type: functional
Saccharomyces cerevisiae [32] = assay: Increase in intracellular fluconazole accumulation in Saccharomyces cerevisiae YNL032 harboring pdr5 deletion mutant at 400 uM measured after 4 hrs by HPLC analysis; assay type: functional, cell-based
Candida albicans [33] = assay: Potentiation of micafungin-induced antifungal activity against Candida albicans SC5314 assessed as fungal growth at 100 microM measured after 24 hrs in presence of micafungin by absorbance based analysis relative to micafungin-treated control; assay type: functional
Saccharomyces cerevisiae [34] = assay: Potentiation of fluconazole-induced antifungal activity against Saccharomyces cerevisiae BY4741 assessed as fungal growth at 100 uM measured after 24 hrs by absorbance based analysis relative to fluconazole-treated control; assay type: functional
Saccharomyces cerevisiae [35] = assay: Antifungal activity against Saccharomyces cerevisiae harboring ycf1 delta mutant assessed as fungal growth at 1600 uM measured after 24 hrs by absorbance based analysis relative to control; assay type: functional
Saccharomyces cerevisiae [36] = assay: Antifungal activity against Saccharomyces cerevisiae harboring aus1 delta mutant assessed as fungal growth at 1600 uM measured after 24 hrs by absorbance based analysis relative to control; assay type: functional
Saccharomyces cerevisiae [37] = assay: Antifungal activity against Saccharomyces cerevisiae harboring adp1 delta mutant assessed as fungal growth at 1600 uM measured after 24 hrs by absorbance based analysis relative to control; assay type: functional
Candida albicans [38] = assay: Antifungal activity against fluconazole-resistant Candida albicans CNL011 assessed as fungal growth at 100 uM measured after 24 hrs by absorbance based analysis relative to vehicle-treated control; assay type: functional
Candida albicans [39] = assay: Antifungal activity against Candida albicans SC5314 assessed as inhibition of fungal growth by measuring decrease in OD600 at 100 microM measured after 24 hrs by absorbance based analysis; assay type: functional
Candida albicans [40] = assay: Recovery of fluconazole susceptibility against fluconazole-resistant Candida albicans CNL012 assessed as inhibition of fungal growth at 100 uM measured every 15 mins for 24 hrs by absorbance based analysis; assay type: functional, organism-based
Saccharomyces cerevisiae [41] = assay: Antifungal activity against Saccharomyces cerevisiae harboring yol075c delta mutant assessed as fungal growth at 1600 uM measured after 24 hrs by absorbance based analysis relative to control; assay type: functional
Saccharomyces cerevisiae [42] = assay: Antifungal activity against Saccharomyces cerevisiae harboring pdr5 delta mutant assessed as fungal growth at 1600 uM measured after 24 hrs by absorbance based analysis relative to control; assay type: functional
Candida parapsilosis [43] = assay: Potentiation of fluconazole-induced antifungal activity against Candida parapsilosis NL001 assessed as fungal growth at 100 uM measured after 24 hrs in presence of fluconazole by absorbance based analysis relative to fluconazole-treated control; assay type: functional
Saccharomyces cerevisiae [44] = assay: Antifungal activity against Saccharomyces cerevisiae harboring bpt1 delta mutant assessed as fungal growth at 1600 uM measured after 24 hrs by absorbance based analysis relative to control; assay type: functional
Candida albicans [45] = assay: Antifungal activity against Candida albicans SC5314 assessed as inhibition of fungal filamentation in Spider medium at 100 uM incubated for 1 hr by microscopic analysis; assay type: functional, organism-based
Candida parapsilosis [46] = assay: Potentiation of fluconazole-induced antifungal activity against Candida parapsilosis NL001 assessed as fungal growth at 100 uM measured after 24 hrs in presence of fluconazole by absorbance based analysis relative to vehicle-treated control; assay type: functional
Saccharomyces cerevisiae [47] = assay: Antifungal activity against Saccharomyces cerevisiae harboring nft1 delta mutant assessed as fungal growth at 1600 uM measured after 24 hrs by absorbance based analysis relative to control; assay type: functional
Saccharomyces cerevisiae [48] = assay: Antifungal activity against Saccharomyces cerevisiae harboring vmr1 delta mutant assessed as fungal growth at 1600 uM measured after 24 hrs by absorbance based analysis relative to control; assay type: functional
Saccharomyces cerevisiae [49] = assay: Antifungal activity against Saccharomyces cerevisiae BY4742 assessed as fungal growth at 1600 uM measured after 24 hrs by absorbance based analysis relative to control; assay type: functional
Saccharomyces cerevisiae [50] = assay: Antifungal activity against Saccharomyces cerevisiae harboring pdr10 delta mutant assessed as fungal growth at 1600 uM measured after 24 hrs by absorbance based analysis relative to control; assay type: functional

CO[C@H]1O[C@@H]2O[C@@]3(C)CC[C@H]4[C@H](C)CC[C@@H]([C@H]1C)[C@@]24OO3 [ARTEMETHER]
Activity (Candida tropicalis [1]): 88.1% | Activity (Candida albicans [2]): Active | Activity (Candida albicans [3]): Active | Activity (Saccharomyces cerevisiae [4]): 67.5% | Activity (Saccharomyces cerevisiae [5]): Active | Activity (Cryptococcus neoformans [6]): Active | Activity (Candida albicans [7]): 52.6% | Activity (Candida tropicalis [8]): 81.9% | Activity (Candida tropicalis [9]): 83.3% | Activity ([Candida] auris [10]): 48.4% | Activity (Saccharomyces cerevisiae [11]): 75.4% | inhibition (Saccharomyces cerevisiae [12]): Active | Activity (Candida albicans [13]): Active | Activity (Saccharomyces cerevisiae [14]): 70.2% | Activity (Candida albicans [15]): 96.1% | inhibition (Saccharomyces cerevisiae [16]): Dose-Dependent Effect | Activity (Saccharomyces cerevisiae [17]): 77.8% | Activity ([Candida] auris [18]): 57.6% | Activity (Candida parapsilosis [19]): 68.6% | Activity (Candida albicans [20]): 91.6% | Activity (Saccharomyces cerevisiae [21]): 69.2% | Activity ([Candida] auris [22]): 44.7% | inhibition at 100 µM (Saccharomyces cerevisiae [23]): 68.8% | Activity (Cryptococcus neoformans [24]): Active | Activity (Saccharomyces cerevisiae [25]): 70.9% | inhibition at 100 µM (Saccharomyces cerevisiae [26]): 45.8% | Activity (Candida albicans [27]): inactive | Activity [28]: 13.1 nmol | Activity (Candida albicans [29]): Active | Activity (Saccharomyces cerevisiae [30]): 72.7% | Activity (Saccharomyces cerevisiae [31]): 71.2% | Activity (Saccharomyces cerevisiae [32]): Active | Activity (Candida albicans [33]): 95.2% | Activity (Saccharomyces cerevisiae [34]): 76.5% | Activity (Saccharomyces cerevisiae [35]): 60.3% | Activity (Saccharomyces cerevisiae [36]): 71% | Activity (Saccharomyces cerevisiae [37]): 68% | Activity (Candida albicans [38]): 86.9% | inhibition at 100 µM (Candida albicans [39]): 10.1% | Activity (Candida albicans [40]): Active | Activity (Saccharomyces cerevisiae [41]): 67.9% | Activity (Saccharomyces cerevisiae [42]): 29.8% | Activity (Candida parapsilosis [43]): 41.5% | Activity (Saccharomyces cerevisiae [44]): 71.8% | Activity (Candida albicans [45]): inactive | Activity (Candida parapsilosis [46]): 41.5% | Activity (Saccharomyces cerevisiae [47]): 72.3% | Activity (Saccharomyces cerevisiae [48]): 65.6% | Activity (Saccharomyces cerevisiae [49]): 71.9% | Activity (Saccharomyces cerevisiae [50]): 67.1%

C[C@@H]1CC[C@H]2[C@@H](C)C(=O)O[C@@H]3O[C@@]4(C)CC[C@@H]1[C@]32OO4 [ARTEMISININ]
Activity (Candida albicans [7]): 22.6% | Activity (Candida albicans [13]): Active | Activity (Candida albicans [15]): 96.1% | Activity (Candida albicans [27]): inactive | Activity (Candida albicans [29]): Active | Activity (Candida albicans [33]): 97.7% | inhibition at 100 µM (Candida albicans [39]): 4.9% | Activity (Candida albicans [45]): inactive

C[C@H]1[C@H](OC(=O)CCC(=O)O)O[C@@H]2O[C@@]3(C)CC[C@H]4[C@H](C)CC[C@@H]1[C@@]24OO3 [ARTESUNATE]
Activity (Candida albicans [7]): 42.9% | Activity (Candida albicans [13]): Active | Activity (Candida albicans [27]): inactive | Activity (Candida albicans [29]): Active | Activity (Candida albicans [33]): 96.9% | Activity (Candida albicans [39]): inactive | Activity (Candida albicans [45]): inactive
